Laboratory results reported in patent publication US8962844B2, “1,3,4-oxadiazole and 1,3,4-thiadiazole β-lactamase inhibitors” (priority 2012, dated 2015).
Counter-ions that a name gives are not always drawn.

Assays:
[1] = system: bacterial strains that express KPC β-lactamases; test: Standard BLI potentiation MIC / synergy MIC (sMIC) assays run in the presence of a β-lactam, KPC expressing strains; assay type: cell-based; details: more active for at least one KPC strain and/or better spectrum of activity than Avibactam; BLI in combination with a β-lactam
Text: (§1) Unless otherwise indicated, the activity of the BLI compounds can be described by the MIC value obtained from a Synergy MIC assay or a BLI potentiation assay (e.g as described herein), both of which are run in the presence of a β-lactam.
(§2) A set of β-lactamase expressing isogenic E. coli strains was constructed by cloning a β-lactamase gene into a customized derivative of pBR322 (GenBank Accession Number J01749) and transforming the engineered plasmids into E. coli. The NdeI restriction site within the plasmid backbone of pBR322 was removed to generate pBR322 ΔNdeI. The pBR322 ΔNdeI vector itself, minus the blaTEM-1 gene, was amplified using two primers: (1) pBR-Pbla 5′-cgcatatgactettectttttcaatattattg-3, SEQ ID 1, a primer with an engineered NdeI restriction site at the 3′ end of the blaTEM-1 promoter and (2) pBR-vec-1 5′-[…]-3′, SEQ ID 2, a primer with an engineered BamHI restriction site at the 3′ end of the blaTEM-1 open reading frame. The chloramphenicol resistance gene, cat, was generated by PCR amplification from pKD3 (GenBank Accession Number AY048742) using primers with an engineered NdeI restriction site at the 5′ end (Pbla-cat 5′-[…]-3′, SEQ ID 3) and an engineered BamHI restriction site at the 3′ end (Vec-1-cat 5′-[…]-3′, SEQ ID 4) of the resistance gene. The two PCR products, pBR322 ΔNdeI and cat were ligated together generating pBR-CBST (pBR322 ΔNdeI ΔTEM-1::cat Seq. ID 5) which retains both the pBR322 tetracycline resistance cassette, tetA, and the plasmid origin of replication but the blaTEM-1 gene was replaced by the cat gene.
(§3) Using this engineering strategy a number of plasmids producing β-lactamase genes from different classes (see below) were generated using synthetic genes with an engineered NdeI restriction site at the 5′ end and BamHI restriction site at the 3′ end of each gene (GenScript). Both the synthetic β-lactamase genes and cat gene were ligated into the NdeI/BamHI sites of the pBR322 ΔNdeI PCR product and transformed into electrocompetent E. coli ElectroMax DH10B (Invitrogen/Life Technologies). E. coli DH10B harboring the recombinant plasmids were selected on LB agar (supplemented with 25 μg/mL tetracycline) and single isolated colonies were then inoculated into 5 mL LB media (supplemented with 25 μg/mL tetracycline), and incubated at 37° C. with aeration (250 rpm) for 18 hrs. The cultures were frozen back at −80° C. in 20% glycerol. The DNA sequence of the cloned β-lactamase genes was confirmed. The β-lactamase gene expression in the recombinant E. coli strains was driven by the blaTEM-1 promoter in the pBR-CBST plasmid and was characterized by MIC profiling of the E. coli recombinant strains against comparator β-lactam/BLI combinations in broth microdilution assay.
(§4) The experimental protocol was performed according to Clinical and Laboratory Standards Institute (CLSI) guidelines with modifications as described below (CLSI guidelines can be derived from the CLSI document M07-A9 published in January 2012: “Methods for Dilution Antimicrobial Susceptibility Tests for Bacteria That Grow Aerobically; Approved Standard-Ninth Edition”).
(§5) To prepare for MIC testing, frozen glycerol stocks of clinical isolates (Klebsiella pneumoniae, Eschericia coli, Enterobacter spp, Citrobacter spp, or Pseudomonas aeruginosa) were used to streak for isolated colonies on rich, non-selective, tryptic soy agar containing 5% sheep's blood (TSAB). Frozen glycerol stocks of laboratory engineered, isogenic E. coli strains, which contain cloned β-lactamase expressing plasmids were used to streak for isolated colonies on rich, selective LB agar supplemented with 25 μg/mL tetracycline to maintain the plasmid. All strains were incubated at 37° C. for 18-24 hrs.
(§6) On the day of testing, primary cultures were started by scraping off 5-10 colonies from the TSAB plates containing clinical strains or the tetracycline supplemented LB plates containing engineered strains. […]

[2] = system: bacterial strains that express the class D cephalosporinase OXA-15; test: Standard BLI potentiation MIC / synergy MIC (sMIC) assays run in the presence of a β-lactam, OXA-15 expressing strains; assay type: cell-based, E. coli; details: BLI in combination with a β-lactam; comparison with Avibactam (comparator compound CCC)
Text: as §1, §2, §3, §4, §5, §6

SMILES: N=C(N)NCCc1nnc([C@@H]2CC[C@@H]3CN2C(=O)N3OS(=O)(=O)O)s1 [Compound 794, (2S,5R)-2-(5-(2-guanidinoethyl)-1,3,4-thiadiazol-2-yl)-7-oxo-1,6-diazabicyclo[3.2.1]octan-6-yl hydrogen sulfate]
- activity and/or spectrum of activity against bacterial strains that express KPC β-lactamases, compared with Avibactam [1]: more active than Avibactam
- activity against bacterial strains that express the class D cephalosporinase OXA-15, compared with Avibactam [2]: more active than Avibactam

SMILES: NC1CCN(Cc2nnc([C@@H]3CC[C@@H]4CN3C(=O)N4OS(=O)(=O)O)o2)CC1 [Compound 774, (2S,5R)-2-(5-((4-aminopiperidin-1-yl)methyl)-1,3,4-oxadiazol-2-yl)-7-oxo-1,6-diazabicyclo[3.2.1]octan-6-yl hydrogen sulfate]
- activity and/or spectrum of activity against bacterial strains that express KPC β-lactamases, compared with Avibactam [1]: more active than Avibactam
- activity against bacterial strains that express the class D cephalosporinase OXA-15, compared with Avibactam [2]: more active than Avibactam

SMILES: NC1CC(NCc2nnc([C@@H]3CC[C@@H]4CN3C(=O)N4OS(=O)(=O)O)o2)C1 (stereo partly drawn) [Compound 755, (2S,5R)-2-(5-(((3-aminocyclobutyl)amino)methyl)-1,3,4-oxadiazol-2-yl)-7-oxo-1,6-diazabicyclo[3.2.1]octan-6-yl hydrogen sulfate]
- activity and/or spectrum of activity against bacterial strains that express KPC β-lactamases, compared with Avibactam [1]: more active than Avibactam
- activity against bacterial strains that express the class D cephalosporinase OXA-15, compared with Avibactam [2]: more active than Avibactam

SMILES: O=C1N2C[C@@H](CC[C@H]2c2nnc(C3CCNCC3)o2)N1OS(=O)(=O)O [Compound 711, (2S,5R)-7-oxo-2-(5-(piperidin-4-yl)-1,3,4-oxadiazol-2-yl)-1,6-diazabicyclo[3.2.1]octan-6-yl hydrogen sulfate]
- activity and/or spectrum of activity against bacterial strains that express KPC β-lactamases, compared with Avibactam [1]: more active than Avibactam
- activity against bacterial strains that express the class D cephalosporinase OXA-15, compared with Avibactam [2]: more active than Avibactam

SMILES: NCCc1nnc([C@@H]2CC[C@@H]3CN2C(=O)N3OS(=O)(=O)O)o1 [Compound 703, (2S,5R)-2-(5-(2-aminoethyl)-1,3,4-oxadiazol-2-yl)-7-oxo-1,6-diazabicyclo[3.2.1]octan-6-yl hydrogen sulfate]
- activity and/or spectrum of activity against bacterial strains that express KPC β-lactamases, compared with Avibactam [1]: more active than Avibactam
- activity against bacterial strains that express the class D cephalosporinase OXA-15, compared with Avibactam [2]: more active than Avibactam

SMILES: N[C@@H]1CN[C@H](c2nnc([C@@H]3CC[C@@H]4CN3C(=O)N4OS(=O)(=O)O)o2)C1 [Compound 760, (2S,5R)-2-(5-((2S,4S)-4-aminopyrrolidin-2-yl)-1,3,4-oxadiazol-2-yl)-7-oxo-1,6-diazabicyclo[3.2.1]octan-6-yl hydrogen sulfate]
- activity and/or spectrum of activity against bacterial strains that express KPC β-lactamases, compared with Avibactam [1]: more active than Avibactam
- activity against bacterial strains that express the class D cephalosporinase OXA-15, compared with Avibactam [2]: more active than Avibactam

SMILES: CC(C)(N)Cc1nnc([C@@H]2CC[C@@H]3CN2C(=O)N3OS(=O)(=O)O)o1 [Compound 737, (2S,5R)-2-(5-(2-amino-2-methylpropyl)-1,3,4-oxadiazol-2-yl)-7-oxo-1,6-diazabicyclo[3.2.1]octan-6-yl hydrogen sulfate]
- activity and/or spectrum of activity against bacterial strains that express KPC β-lactamases, compared with Avibactam [1]: more active than Avibactam
- activity against bacterial strains that express the class D cephalosporinase OXA-15, compared with Avibactam [2]: more active than Avibactam

SMILES: N[C@H]1C[C@H](Cc2nnc([C@@H]3CC[C@@H]4CN3C(=O)N4OS(=O)(=O)O)o2)C1 [Compound 751, (2S,5R)-2-(5-(((1r,3S)-3-aminocyclobutyl)methyl)-1,3,4-oxadiazol-2-yl)-7-oxo-1,6-diazabicyclo[3.2.1]octan-6-yl hydrogen sulfate]
- activity and/or spectrum of activity against bacterial strains that express KPC β-lactamases, compared with Avibactam [1]: more active than Avibactam
- activity against bacterial strains that express the class D cephalosporinase OXA-15, compared with Avibactam [2]: more active than Avibactam

SMILES: N=C(N)NC[C@H](O)c1nnc([C@@H]2CC[C@@H]3CN2C(=O)N3OS(=O)(=O)O)o1 [Compound 732, (2S,5R)-2-(5-((S)-2-guanidino-1-hydroxyethyl)-1,3,4-oxadiazol-2-yl)-7-oxo-1,6-diazabicyclo[3.2.1]octan-6-yl hydrogen sulfate]
- activity and/or spectrum of activity against bacterial strains that express KPC β-lactamases, compared with Avibactam [1]: more active than Avibactam
- activity against bacterial strains that express the class D cephalosporinase OXA-15, compared with Avibactam [2]: more active than Avibactam

SMILES: N=C(N)NCC1(c2nnc([C@@H]3CC[C@@H]4CN3C(=O)N4OS(=O)(=O)O)o2)CC1 [Compound 723, (2S,5R)-2-(5-(1-(guanidinomethyl)cyclopropyl)-1,3,4-oxadiazol-2-yl)-7-oxo-1,6-diazabicyclo[3.2.1]octan-6-yl hydrogen sulfate]
- activity and/or spectrum of activity against bacterial strains that express KPC β-lactamases, compared with Avibactam [1]: more active than Avibactam
- activity against bacterial strains that express the class D cephalosporinase OXA-15, compared with Avibactam [2]: more active than Avibactam

SMILES: NC1(Cc2nnc([C@@H]3CC[C@@H]4CN3C(=O)N4OS(=O)(=O)O)o2)CC1 [Compound 724, (2S,5R)-2-(5-((1-aminocyclopropyl)methyl)-1,3,4-oxadiazol-2-yl)-7-oxo-1,6-diazabicyclo[3.2.1]octan-6-yl hydrogen sulfate]
- activity and/or spectrum of activity against bacterial strains that express KPC β-lactamases, compared with Avibactam [1]: more active than Avibactam
- activity against bacterial strains that express the class D cephalosporinase OXA-15, compared with Avibactam [2]: more active than Avibactam

SMILES: N[C@H]1C[C@@H](c2nnc([C@@H]3CC[C@@H]4CN3C(=O)N4OS(=O)(=O)O)s2)C1 [Compound 795, (2S,5R)-2-(5-((1s,3R)-3-aminocyclobutyl)-1,3,4-thiadiazol-2-yl)-7-oxo-1,6-diazabicyclo[3.2.1]octan-6-yl hydrogen sulfate]
- activity and/or spectrum of activity against bacterial strains that express KPC β-lactamases, compared with Avibactam [1]: more active than Avibactam
- activity against bacterial strains that express the class D cephalosporinase OXA-15, compared with Avibactam [2]: more active than Avibactam

SMILES: O=C1N2C[C@@H](CC[C@H]2c2nnc(CCNCCO)o2)N1OS(=O)(=O)O [Compound 736, (2S,5R)-2-(5-(2-((2-hydroxyethyl)amino)ethyl)-1,3,4-oxadiazol-2-yl)-7-oxo-1,6-diazabicyclo[3.2.1]octan-6-yl hydrogen sulfate]
- activity and/or spectrum of activity against bacterial strains that express KPC β-lactamases, compared with Avibactam [1]: more active than Avibactam
- activity against bacterial strains that express the class D cephalosporinase OXA-15, compared with Avibactam [2]: more active than Avibactam

SMILES: N=C(N)NC[C@@H](O)c1nnc([C@@H]2CC[C@@H]3CN2C(=O)N3OS(=O)(=O)O)o1 [Compound 731, (2S,5R)-2-(5-((R)-2-guanidino-1-hydroxyethyl)-1,3,4-oxadiazol-2-yl)-7-oxo-1,6-diazabicyclo[3.2.1]octan-6-yl hydrogen sulfate]
- activity and/or spectrum of activity against bacterial strains that express KPC β-lactamases, compared with Avibactam [1]: more active than Avibactam
- activity against bacterial strains that express the class D cephalosporinase OXA-15, compared with Avibactam [2]: more active than Avibactam

SMILES: N[C@H]1CC[C@@H](c2nnc([C@@H]3CC[C@@H]4CN3C(=O)N4OS(=O)(=O)O)o2)C1 [Compound 768, (2S,5R)-2-(5-((1R,3S)-3-aminocyclopentyl)-1,3,4-oxadiazol-2-yl)-7-oxo-1,6-diazabicyclo[3.2.1]octan-6-yl hydrogen sulfate]
- activity and/or spectrum of activity against bacterial strains that express KPC β-lactamases, compared with Avibactam [1]: more active than Avibactam
- activity against bacterial strains that express the class D cephalosporinase OXA-15, compared with Avibactam [2]: more active than Avibactam

SMILES: NC1CCN(CCc2nnc([C@@H]3CC[C@@H]4CN3C(=O)N4OS(=O)(=O)O)o2)CC1 [Compound 775, (2S,5R)-2-(5-(2-(4-aminopiperidin-1-yl)ethyl)-1,3,4-oxadiazol-2-yl)-7-oxo-1,6-diazabicyclo[3.2.1]octan-6-yl hydrogen sulfate]
- activity and/or spectrum of activity against bacterial strains that express KPC β-lactamases, compared with Avibactam [1]: more active than Avibactam
